Results reported in US20040166079A1, “N-Lauroyl amino acid composition for slimming the human body” (priority 2003, published 2004).

Assays:
human recombinant MMP-2 = target: T1, human recombinant MMP-2 (Homo sapiens, UniProt P08253); assay: Measurement of the activity of metalloproteinase MMP-2 (DQ-gelatin fluorescence); type: biochemical; settings: incubation concentration 0.1 % DE; relative to the control
T1 construct: purchased CALBIOCHEM PF023
T1 sequence (P08253 110-660): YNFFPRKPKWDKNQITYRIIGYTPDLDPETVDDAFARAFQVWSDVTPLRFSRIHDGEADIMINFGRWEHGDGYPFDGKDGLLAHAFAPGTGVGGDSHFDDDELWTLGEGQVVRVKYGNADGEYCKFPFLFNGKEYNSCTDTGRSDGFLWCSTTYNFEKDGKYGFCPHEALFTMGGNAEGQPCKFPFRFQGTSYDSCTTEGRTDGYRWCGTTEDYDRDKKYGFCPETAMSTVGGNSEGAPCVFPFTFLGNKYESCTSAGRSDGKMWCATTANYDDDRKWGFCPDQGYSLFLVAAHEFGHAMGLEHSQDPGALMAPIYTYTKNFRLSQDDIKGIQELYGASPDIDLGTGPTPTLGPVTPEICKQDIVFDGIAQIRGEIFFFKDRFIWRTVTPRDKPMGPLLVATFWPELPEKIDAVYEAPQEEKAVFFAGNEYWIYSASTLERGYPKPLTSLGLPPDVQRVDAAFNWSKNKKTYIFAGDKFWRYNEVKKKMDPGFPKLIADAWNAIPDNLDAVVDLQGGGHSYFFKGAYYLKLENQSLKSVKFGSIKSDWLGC
Method: The objective of this test is to evaluate the inhibitory capacity of a product on the enzymatic activity of MMP-2 and MMP-9. This test is based on an enzymatic reaction between purified MMP-2 or MMP-9 and a specific substrate containing a chromophore. The degradation of the chromogenic substrate by the enzyme leads to the production of fluorescence monitored by fluorimetry.
(ii)—A human recombinant MMP-2 (CALBIOCHEM, PF023) is incubated, at 0.1 μg/ml, in the presence of the product and the chromogenic substrate, DQ-gelatin conjugated with fluorescein (MOLECULAR PROBE, D12054) at 10 μg/ml. The reaction mixture is incubated overnight at room temperature, protected from light. The quantity of DQ-gelatin degraded is measured by fluorescence (Ex: 355 nm; Em: 460 nm).
The reactivity of the enzymatic system is systematically monitored for the measurement of the effect of a metalloproteinase inhibitor, 1,10-phenanthroline. The results are presented in the following table, as a percentage inhibition of the enzymatic activity of MMP-2 and MMP-9 relative to the control.

[1] = target: T2, hyaluronidase (SIGMA), purified from bovine testicles (Bos taurus, UniProt Q2YDK3); assay: Measurement of the activity of hyaluronidase (purified enzyme); type: biochemical; settings: hyaluronidase test, 60 minutes at 37° C.
T2 construct: purified from bovine testicles; purchased SIGMA; host or cells: bovine testicles
T2 sequence (Q2YDK3 36-553): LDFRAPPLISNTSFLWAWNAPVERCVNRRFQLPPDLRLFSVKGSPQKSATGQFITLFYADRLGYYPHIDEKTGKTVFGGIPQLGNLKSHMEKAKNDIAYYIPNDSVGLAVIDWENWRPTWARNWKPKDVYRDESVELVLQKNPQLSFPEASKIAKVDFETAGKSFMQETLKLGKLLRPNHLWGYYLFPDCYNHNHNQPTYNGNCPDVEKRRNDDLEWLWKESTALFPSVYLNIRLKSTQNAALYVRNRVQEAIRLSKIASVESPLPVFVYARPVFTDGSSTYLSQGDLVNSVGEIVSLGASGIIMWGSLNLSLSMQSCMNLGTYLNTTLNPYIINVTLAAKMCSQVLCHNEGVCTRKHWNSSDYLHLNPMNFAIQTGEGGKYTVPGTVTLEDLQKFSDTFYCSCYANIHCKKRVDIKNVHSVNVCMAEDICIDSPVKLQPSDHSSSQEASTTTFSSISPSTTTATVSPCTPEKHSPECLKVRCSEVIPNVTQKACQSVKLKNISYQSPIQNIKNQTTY
Method: The objective of this test is to measure the activity of hyaluronidase. This enzyme, which is naturally found in the skin, degrades hyaluronic acid. The study is carried out in vitro on the purified enzyme.
The hyaluronidase (SIGMA), purified from bovine testicles, is incubated at 0.01 U/ml in the presence of hyaluronic acid at 0.02 mg/ml, with or without test product. The incubation is carried out for 60 minutes at 37° C.
Evaluation of the effects: After the incubation, the hyaluronic acid not degraded by the enzyme is precipitated by a 24 mM sodium acetate/79. mM acetic acid mixture (10 minutes, room temperature). The precipitate is measured by spectrophotometry at 590 nm.
The effect of the test products is compared to that observed in the presence of dipotassium glycyrrhizinate, a reference hyaluronidase inhibitor.

Cn1c(=O)c2c(ncn2C)n(C)c1=O [Caffeine, 1,3,7-trimethyl-xanthine]
MMP-2 inhibiting effect (human recombinant MMP-2): 0%
Percentage inhibition of hyaluronidase activity ([1]; incubation concentration 0.001 % DE): 15%
Percentage inhibition of hyaluronidase activity ([1]; incubation concentration 0.01 % DE): 20%
